Converted amounts (≈) assume the structure as drawn.
Assays:
[1] = tested on: Staphylococcus epidermidis; experiment: Antibacterial activity against Staphylococcus epidermidis MTCC 2639 by agar dilution method; format: functional
[2] = tested on: Salmonella typhi; experiment: Antibacterial activity against Salmonella typhi MTCC 733 by agar dilution method; format: functional, Salmonella enterica subsp. enterica serovar Typhi; conditions: Salmonella enterica
[3] = tested on: Staphylococcus aureus; experiment: Antibacterial activity against Staphylococcus aureus MTCC 3160 by agar dilution method; format: functional
[4] = tested on: Bacillus subtilis; experiment: Antibacterial activity against Bacillus subtilis MTCC 121 by agar dilution method; format: functional
[5] = tested on: Escherichia coli; experiment: Antibacterial activity against Escherichia coli MTCC 51 by agar dilution method; format: functional

| Compound | MIC [1] | MIC [2] | MIC [3] | MIC [4] | MIC [5] |
| --- | --- | --- | --- | --- | --- |
| C/C(=N\n1c(S)nnc(C)c1=O)c1ccccn1 | 32 µg/mL (≈ 122 µM) | 16 µg/mL (≈ 61.2 µM) | 16 µg/mL (≈ 61.2 µM) | 8 µg/mL (≈ 30.6 µM) | 16 µg/mL (≈ 61.2 µM) |
| N[C@@H](C(=O)N[C@@H]1C(=O)N2C(C(=O)O)=C(Cl)CS[C@H]12)c1ccccc1 [CEFACLOR ANHYDROUS] | 32 µg/mL (≈ 87 µM) | 8 µg/mL (≈ 21.8 µM) | 16 µg/mL (≈ 43.5 µM) | 8 µg/mL (≈ 21.8 µM) | 4 µg/mL (≈ 10.9 µM) |

Reference: ChEMBL document CHEMBL1144598, “Synthesis and characterization of cobalt(II), nickel(II), copper(II) and zinc(II) complexes with Schiff base derived from 4-amino-3-mercapto-6-methyl-5-oxo-1,2,4-triazine” (2007)
